Series [1] has as its system PC9^CCDC6-RET cells (EGFR del19). The experiment in a line: Cell proliferation / viability (CellTiter-Glo). The format is cell-based. The protocol: (§1) PC9 and MGH134 cells expressing the CCDC6-RET gene fusion or empty vector (EV) were treated with 1 μM osimertinib or vehicle (VEH) and cell proliferation determined over the course of five days (ratio compared to the beginning of treatment). Data shown are the mean±s.e.m. of three independent biological replicates.
(§2) Data are shown as a percentage of vehicle treated control and are the mean±s.e.m of three independent biological replicates.
as §2
(§3) For drug dose-response assays, cells were seeded into 96-well plates 24 hours before addition of drug. Cell proliferation was determined by CellTiter-Glo assay (Promega) 72-120 hours after adding drug, using standard protocols. For time-course experiments, multiple plates were seeded and drugged in identical fashion, and at the indicated time points, the plates were frozen at −80° C.; all plates in an experiment were developed with CellTiter-Glo simultaneously. Luminescence was measured with SpectraMax i3x Multi-Mode Microplate Reader (Molecular Devices).
(§4) To determine whether CCDC6-RET expression is sufficient to cause acquired drug resistance, CCDC6-RET fusion expressing cell line models were generated by lentiviral infection of PC9 (EGFR del19) and MGH134 (EGFR L858R/T790M) cells (FIG. 2).
(In general: In ATP-based viability assays light output follows the ATP content of the culture.)

For series [2], the system named is MGH134 parental cells (EV). The series can be described thus: Cell proliferation (CellTiter-Glo). The format is cell-based. The settings on record: 1 μM osimertinib, over five days.
For a further series, the system named is PC9 parental cells (EV). The experiment in a line: Cell proliferation (CellTiter-Glo). The format is cell-based. The settings on record: 1 μM osimertinib, over five days.
Series [3] concerns RET, ERK1/2 and AKT phosphorylation in PC9^CCDC6-RET cells. The series can be described thus: Western blot of downstream signaling. The format is cell-based. The note with it: 6 hours. The procedure: FIG. 4A is a western blot for PC9^EV and PC9^CCDC6-RET cells treated with 100 nM afatinib, 1 μM osimertinib, Compound 1, or combinations thereof for 6 hours and harvested for western blotting with the antibodies.
FIG. 5A is a western blot for PC^9V and PC9^CCDC6-RET cells treated with 100 nM afatinib, 1 μM osimertinib, cabozanitinib, or combinations thereof for 6 hours and harvested for western blot analysis.
(§5) Afatinib, osimertinib, and cabozantinib were purchased from Selleck Chemicals and resuspended in DMSO. Phospho-EGFR (Y1068), EGFR, pBRAF (Ser445), RET, pAKT (Ser473), AKT, pMEK1/2 (Ser217/221), MEK1/2, pERK1/2 (Thr202/204), ERK1/2, and Actin antibodies were purchased from Cell Signaling Technology. pRET (Y1062) antibody was obtained from Abcam.
(In general: Immunoblotting shows a protein as a band on a membrane.)

In series [4] the test system is RET, ERK1/2 and AKT phosphorylation in MGH134^CCDC6-RET cells. The series can be described thus: Western blot of downstream signaling. The format is cell-based. The settings on record: EGFR inhibitor alone (1 μM osimertinib), 6 hours. The procedure: FIG. 4B is a western blot for MGH134^EV and MGH134^CCDC6-RET cells treated with 1 μM osimertinib, cabozantinib, and Compound 1 or combinations thereof for 6 hours and harvested for western blotting with the indicated antibodies.
as §5

Series [5] has as its system MGH134^CCDC6-RET cells (EGFR L858R/T790M). The protocol:
as §1, §2, §3, §4

A further series concerns RET-driven models. The note with it: several RET-driven models; cited from earlier work.
The subject of series [6] is NSCLC patients with RET-alterations. The settings on record: Subbiah et al. 2018; cited from earlier work.
The subject of a further series is RET oncogenic mutants. The settings on record: cellular systems; cited from earlier work.
Where [7] appears, read: 1 μM osimertinib, over five days.

In the case of `C=CC(=O)Nc1cc(Nc2nccc(-c3cn(C)c4ccccc34)n2)c(OC)cc1N(C)CCN(C)C` [osimertinib], the proliferation rate entry in [1] (1 μM osimertinib vs vehicle) and in series [5] (1 μM osimertinib vs vehicle) was “decreased” throughout. For the same compound, the cell proliferation result in series [1] (setting [7]) is listed as “continued to proliferate”; in [2] it was “net decrease in cell viability”; in the series on PC9 parental cells (EV) it was “net decrease in cell viability”; in series [5] (setting [7]), “continued to proliferate”. In addition, the “RET, ERK1/2, and AKT phosphorylation” value in series [3] (100 nM afatinib or 1 μM osimertinib alone) and in series [4] was “retained” in each case.
With `CO[C@]1(C(=O)N[C@@H](C)c2ccc(-n3cc(F)cn3)nc2)CC[C@H](c2nc(C)cc(Nc3cc(C)[nH]n3)n2)CC1` [Compound 1, (1S,4R)—N—((S)-1-(6-(4-fluoro-1H-pyrazol-1-yl)pyridine-3-yl)ethyl)-1-methoxy-4-(4-methyl-6-((5-methyl-1H-pyrazol-3-yl)amino)pyrimidin-2-yl)cyclohexanecarboxamide], the antitumor efficacy entry with RET-driven models is “dose-dependent antitumor efficacy”. Moreover, in [3] (Compound 1 alone), the RET phosphorylation result is on record as “suppressed” and the “downstream ERK or AKT phosphorylation” value was “did not decrease”. Also, in series [6], the clinical responses result was “durable clinical responses” and the off-target toxicity entry was “without notable off-target toxicity”. For the same compound, the “potency of inhibition of kinase activity” value with RET oncogenic mutants is recorded as “low nanomolar potency”.

(Values after US20210308134A1, “TREATMENT OF EGFR-MUTANT CANCER” (BLUEPRINT MEDICINES CORPORATION, priority 2018, published 2021).)
